Assay results published in ChEMBL document CHEMBL1201862, “PubChem BioAssay data set” (2004).
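Five concentrations, 48 hours, 96-well plates. GI50 is the concentration that inhibits growth by half.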 The source made the active and inactive calls. No stated cut-off is given here; in the data, active = GI50 up to about 1.1 µM and inactive = higher.

How the values were obtained:
Assay in all cases: NCI tumour cell line growth inhibition, 48 h
HCT-15 = test system: HCT-15
OVCAR-4 = test system: OVCAR-4
COLO 205 = test system: COLO 205
A549 = test system: A549
OVCAR-5 = test system: OVCAR-5
SNB-75 = test system: SNB-75
786-0 = test system: 786-0
UACC-257 = test system: UACC-257
MOLT-4 = test system: MOLT-4
SK-OV-3 = test system: SK-OV-3
MCF7 = test system: MCF7
SK-MEL-2 = test system: SK-MEL-2
Hs-578T = test system: Hs-578T
RPMI-8226 = test system: RPMI-8226
NCI-H460 = test system: NCI-H460
U-251 = test system: U-251
RXF 393 = test system: RXF 393
MDA-MB-435 = test system: MDA-MB-435
A498 = test system: A498
SF-268 = test system: SF-268
SNB-19 = test system: SNB-19
NCI-H23 = test system: NCI-H23
T47D = test system: T47D
OVCAR-8 = test system: OVCAR-8
HCC 2998 = test system: HCC 2998
IGROV-1 = test system: IGROV-1
ACHN = test system: ACHN
EKVX = test system: EKVX
NCI-H522 = test system: NCI-H522
CCRF-CEM = test system: CCRF-CEM
PC-3 = test system: PC-3
M14 = test system: M14
MDA-MB-231 = test system: MDA-MB-231
HCT-116 = test system: HCT-116
DU-145 = test system: DU-145
CAKI-1 = test system: CAKI-1
SF-539 = test system: SF-539
SR = test system: SR
SN12C = test system: SN12C
SK-MEL-5 = test system: SK-MEL-5
HOP-92 = test system: HOP-92
UO-31 = test system: UO-31
K562 = test system: K562
HOP-62 = test system: HOP-62
OVCAR-3 = test system: OVCAR-3
SK-MEL-28 = test system: SK-MEL-28
HT-29 = test system: HT-29
NCI/ADR-RES = test system: NCI/ADR-RES
KM12 = test system: KM12
TK-10 = test system: TK-10
NCI-H226 = test system: NCI-H226
SF-295 = test system: SF-295
BT-549 = test system: BT-549
SW-620 = test system: SW-620
HL-60 = test system: HL-60
UACC-62 = test system: UACC-62
MDA-N = test system: MDA-N
LOX IMVI = test system: LOX IMVI
Malme-3M = test system: Malme-3M

With `Cc1cnc2c(c1C)C(=O)c1ccccc1C2=O` the GI50 (HCT-15) was 21.6 µM, the GI50 (OVCAR-4) was 18.8 µM (inactive) and the GI50 (COLO 205) was 28.8 µM (inactive). For the same molecule, the GI50 (A549) was 40.1 µM (inactive), the GI50 (OVCAR-5) was > 100 µM (inactive) and the GI50 (SNB-75) was 32.9 µM (inactive). The GI50 (786-0) was 65.2 µM (inactive), the GI50 (UACC-257) was 49.4 µM (inactive) and the GI50 (MOLT-4) was 28.3 µM (inactive). The GI50 (SK-OV-3) was 50.5 µM (inactive), the GI50 (MCF7) was 39.1 µM (inactive) and the GI50 (SK-MEL-2) was 63.5 µM (inactive). The GI50 (Hs-578T) was 32.9 µM (inactive), the GI50 (RPMI-8226) was 24.6 µM (inactive) and the GI50 (NCI-H460) was 18.8 µM (inactive). For the same molecule, the GI50 (U-251) was 61.5 µM (inactive), the GI50 (RXF 393) was 58.1 µM (inactive) and the GI50 (MDA-MB-435) was 19.3 µM (inactive). For the same molecule, the GI50 (A498) was > 100 µM (inactive), the GI50 (SF-268) was 20.1 µM (inactive) and the GI50 (SNB-19) was 41.9 µM (inactive). The GI50 (NCI-H23) was 44.7 µM (inactive), the GI50 (T47D) was 70.5 µM (inactive) and the GI50 (OVCAR-8) was 43.2 µM (inactive). The GI50 (HCC 2998) was 29.7 µM (inactive), the GI50 (IGROV-1) was 32.6 µM (inactive) and the GI50 (ACHN) was 36.4 µM (inactive). For the same molecule, the GI50 (EKVX) was 37.8 µM (inactive), the GI50 (NCI-H522) was > 100 µM (inactive) and the GI50 (CCRF-CEM) was 69.8 µM (inactive). The GI50 (PC-3) was 26 µM (inactive), the GI50 (M14) was 69 µM (inactive) and the GI50 (MDA-MB-231) was 26.5 µM (inactive). The GI50 (HCT-116) was 36.1 µM (inactive), the GI50 (DU-145) was > 100 µM (inactive) and the GI50 (CAKI-1) was 30 µM (inactive). The GI50 (SF-539) was 29.2 µM (inactive), the GI50 (SR) was 38 µM (inactive) and the GI50 (SN12C) was 28.6 µM (inactive). For the same molecule, the GI50 (SK-MEL-5) was 11.8 µM (inactive), the GI50 (HOP-92) was > 100 µM (inactive) and the GI50 (UO-31) was 21.2 µM (inactive). For the same molecule, the GI50 (K562) was 39.4 µM (inactive), the GI50 (HOP-62) was 2.47 µM (inactive) and the GI50 (OVCAR-3) was 3.48 µM (inactive). For the same molecule, the GI50 (SK-MEL-28) was > 100 µM (inactive), the GI50 (HT-29) was 37.2 µM (inactive) and the GI50 (NCI/ADR-RES) was 46.3 µM (inactive). For the same molecule, the GI50 (KM12) was 44.6 µM (inactive), the GI50 (TK-10) was > 100 µM (inactive) and the GI50 (NCI-H226) was 36.8 µM (inactive). The GI50 (SF-295) was 50.2 µM (inactive), the GI50 (BT-549) was > 100 µM (inactive) and the GI50 (SW-620) was 27.5 µM (inactive).
For `COc1ccc(C)cc1Nc1nnc(-c2ccc(N)cc2)s1`, the GI50 (HCT-15) was 69.2 µM, the GI50 (OVCAR-4) was > 100 µM (inactive) and the GI50 (COLO 205) was 80.5 µM (inactive). The GI50 (A549) was 7.53 µM (inactive), the GI50 (OVCAR-5) was 68.7 µM (inactive) and the GI50 (SNB-75) was > 100 µM (inactive). The GI50 (786-0) was 70.1 µM (inactive), the GI50 (UACC-257) was 81.1 µM (inactive) and the GI50 (MOLT-4) was 35.3 µM (inactive). The GI50 (HL-60) was 32.7 µM (inactive), the GI50 (SK-OV-3) was > 100 µM (inactive) and the GI50 (MCF7) was 46.3 µM (inactive). For the same molecule, the GI50 (SK-MEL-2) was 63.1 µM (inactive), the GI50 (UACC-62) was > 100 µM (inactive) and the GI50 (Hs-578T) was > 100 µM (inactive). For the same molecule, the GI50 (RPMI-8226) was 31.5 µM (inactive), the GI50 (NCI-H460) was 61.8 µM (inactive) and the GI50 (RXF 393) was 62.4 µM (inactive). The GI50 (MDA-MB-435) was 33.3 µM (inactive), the GI50 (A498) was > 100 µM (inactive) and the GI50 (SF-268) was > 100 µM (inactive). The GI50 (SNB-19) was > 100 µM (inactive), the GI50 (NCI-H23) was 88.1 µM (inactive) and the GI50 (MDA-N) was 30.4 µM (inactive). The GI50 (T47D) was 36.1 µM (inactive), the GI50 (OVCAR-8) was 87.3 µM (inactive) and the GI50 (HCC 2998) was 44.7 µM (inactive). For the same molecule, the GI50 (IGROV-1) was > 100 µM (inactive), the GI50 (ACHN) was > 100 µM (inactive) and the GI50 (EKVX) was 2.65 µM (inactive). For the same molecule, the GI50 (NCI-H522) was 60.3 µM (inactive), the GI50 (CCRF-CEM) was 41 µM (inactive) and the GI50 (PC-3) was 96.4 µM (inactive). For the same molecule, the GI50 (M14) was > 100 µM (inactive), the GI50 (LOX IMVI) was 39.4 µM (inactive) and the GI50 (HCT-116) was 49.4 µM (inactive). For the same molecule, the GI50 (DU-145) was > 100 µM (inactive), the GI50 (CAKI-1) was 73.3 µM (inactive) and the GI50 (SF-539) was > 100 µM (inactive). The GI50 (SR) was 38.4 µM (inactive), the GI50 (SN12C) was > 100 µM (inactive) and the GI50 (SK-MEL-5) was 24.5 µM (inactive). The GI50 (HOP-92) was > 100 µM (inactive), the GI50 (Malme-3M) was > 100 µM (inactive) and the GI50 (UO-31) was 42 µM (inactive). The GI50 (K562) was 35.8 µM (inactive), the GI50 (HOP-62) was 51.8 µM (inactive) and the GI50 (OVCAR-3) was 73.6 µM (inactive). For the same molecule, the GI50 (SK-MEL-28) was > 100 µM (inactive), the GI50 (HT-29) was 48.3 µM (inactive) and the GI50 (NCI/ADR-RES) was > 100 µM (inactive). For the same molecule, the GI50 (KM12) was 46.2 µM (inactive), the GI50 (NCI-H226) was 44.9 µM (inactive) and the GI50 (SF-295) was 43.4 µM (inactive). For the same molecule, the GI50 (BT-549) was > 100 µM (inactive) and the GI50 (SW-620) was 88.1 µM (inactive).
